Test results as given in patent US20130324508A1, “BIOMARKER FOR PROSTATE CANCER AND METHOD OF USING THE SAME” (UNIVERSITY OF TENNESSEE RESEARCH FOUNDATION, priority 2012, published 2013).
Ends that are not written are not given here.

How the values were obtained:
[1] = tested on: PC-3 cells; details: PC-3 cells treated with ERK pathway inhibitor; cited from earlier work
[2] = tested on: 22Rv1; test: PSA and Runx 2II gene expression in 22Rv1 cells (real time RT-PCR); format: cell-based, human; details: for PSA gene expression / Runx 2II gene expression: 22Rv1, 8 hours stimulation, OC 80 ng/ml, arginine 30 mM, R1881 100 nM; for PSA gene expression: FIG. 4A; for Runx 2II gene expression: FIG. 4B
Procedure: (§1) Human tissue cDNAs were obtained from Clontech Laboratories, Inc. Total RNA from human prostate cancer cells was isolated with RNeasy Mini Kit (Qiagen Inc., Valencia, Calif.). RT-PCR was done using two-step RNA PCR (Perkin-Elmer). In separate reactions, 2.0 μg of DNase-treated total RNA was reverse-transcribed into cDNA with the respective reverse primers specified below and Moloney murine leukemia virus reverse transcriptase (Gibco Life Technologies, Inc.). Reactions were carried out at 42° C. for 60 min followed by 94° C. for 5 min and 5° C. for 5 min. The products of first-strand cDNA synthesis were directly amplified by PCR using AmpliTaq DNA polymerase (Perkin-Elmer). The primers for human GPRC6A are as follows: hGPRC6A.F203: […] (SEQ ID NO: 1) and hGPRC6A.R630: […] (SEQ ID NO: 2). For housekeeping gene control G3PDH gene, G3PDH.F143: […] (SEQ ID NO: 3) and G3PDH.R1050: […] (SEQ ID NO: 4). For quantitative real time RT-PCR assessment of PSA and Runx 2II genes expression, total RNA was isolated and reverse transcribed from 22Rv1 cells that stimulated with or without OC (80 ng/ml), arginine (30 mM) and R1881 (100 nM) as previously described using specific primer sets. The primers sequences were PSA. For: […] (SEQ ID NO: 5) and PSA.Rev: […] (SEQ ID NO: 6); Runx 2. For: […] (SEQ ID NO: 7) and Runx 2. Rev: […] (SEQ ID NO: 8), and the threshold cycle (Ct) of tested-gene product from the indicated genotype was normalized to the Ct for cyclophilin A as previously described (18).
(§2) After 8 hours stimulation, OC, arginine and R1881 stimulated PSA and Runx 2II gene expression in human prostate cancer 22Rv1 (FIG. 4A and FIG. 4B) and PC-3 cells (FIG. 4C and FIG. 4D). * indicates a significant difference from control and stimulation at p<0.05 respectively.
To investigate whether the observed ligand-induced PSA and Runx2 gene expression in the prostate cancer cells is due to simulation of GPRC6A, the response to GPRC6A ligands was examined after knock-down of GPRC6A. ERK activity was assessed in 22Rv1 stably transfected with GPRC6A siRNA-514 and compared this response to transfected cells with a random negative control siRNA plasmid, which were used as controls.

[3] = tested on: PC-3; test: PSA and Runx 2II gene expression in PC-3 cells (real time RT-PCR); format: cell-based, human; details: 8 hours stimulation; for PSA gene expression: FIG. 4C; for Runx 2II gene expression: FIG. 4D
Procedure: as §1, §2

[4] = tested on: 22Rv1; test: ERK activation in 22Rv1 prostate cancer cells (Western blot); format: cell-based, human; details: for phospho-ERK: 22Rv1 (androgen receptor positive), calcium 10 mM, zinc 0.2 mM, OC 20 ng/ml, arginine 20 mM, testosterone-BSA 60 nM, 5 min, FIG. 2B; for OC and testosterone stimulated phospho-ERK activity: FIG. 5B
Procedure: (§3) Briefly, human prostate cancer cells and the cells transfected with GPRC6A will be made quiescent by overnight incubation in serum-free DMEM/F12 containing 0.1% BSA and stimulated with various ligands at different doses. ERK activation will be assessed 5 to 30 minutes after treatment by immunoblotting using anti-phospho-ERK1/2 MAP kinase antibody (Cell Signaling Technology) corrected for the amount of ERK using an anti-ERK1/2 MAP Kinase antibody (Cell Signaling Technology) to measure ERK levels.
(§4) Referring to FIG. 2. […] Here, calcium (1-20 mM), zinc (0.2-0.8 mM), OC (5-60 ng/ml), arginine (5-30 mM), and testosterone-BSA (5-100 nM) are confirmed to be functional ligands for GPRC6A (16-17, 19). […] Calcium (10 mM), zinc (0.2 mM), OC (20 ng/ml), arginine (20 mM), and testosterone-BSA (60 nM) increased phospho-ERK in both of these cells. The HEK cells transfected with GPRC6A or without the plasmid cDNA of GPRC6A or 22Rv1 or PC-3 were incubated in Dulbecco's modified Eagle's medium/F-12 containing 0.1% bovine serum albumin quiescence media and exposed to the extracellular calcium, OC, arginine, or testosterone-BSA at indicated concentrations for 5 min, and ERK activation was determined as described under Materials and Methods. Representative blots are shown, and the results were verified in at least three independent experiments.
(§5) To confirm the importance of GPRC6A signaling in prostate cancer cell line, the response to GPRC6A ligands was accessed after knock-down of GPRC6A using siRNA. For these studies, ERK activity was assessed in 22Rv1 and PC-3 cells stably transfected with GPRC6A siRNA-202 and siRNA-514. These responses were compared control groups consisting of mock-transfected cells and transfected cells with a random negative control siRNA plasmid.

[5] = tested on: PC-3; test: ERK activation in PC-3 prostate cancer cells (Western blot); format: cell-based, human; details: for phospho-ERK: PC-3 (androgen receptor negative), calcium 10 mM, zinc 0.2 mM, OC 20 ng/ml, arginine 20 mM, testosterone-BSA 60 nM, 5 min, FIG. 2B; for OC and testosterone stimulated phospho-ERK activity: PC-3 transfected with siRNA, FIG. 5B
Procedure: as §3, §4, §5

[6] = tested on: non-transfected HEK-293 cells; test: ERK activation in non-transfected HEK-293 cells (Western blot); format: cell-based; details: same ligand concentrations, 5 min
Procedure: as §3, §4

[7] = tested on: GPRC6A; test: ERK activation in HEK-293 cells transfected with GPRC6A (Western blot); format: cell-based; details: HEK-293 overexpressing GPRC6A; 5 min; calcium 1-20 mM, zinc 0.2-0.8 mM, OC 5-60 ng/ml, arginine 5-30 mM, testosterone-BSA 5-100 nM; FIG. 2A
Procedure: as §3, §4

[8] = tested on: 22Rv1; test: Chemotaxis assay of 22Rv1 cells; format: cell-based, human; details: migration toward calcium or OC, various concentrations; FIG. 6C
Procedure: The migration of 22Rv1 cells stably expressing negative control siRNA and human GPRC6A-specific siRNA using a previously described chemotaxis assay (22). The migration index was calculated, and was defined as number of cells crossing the filter toward calcium or OC (various concentrations)/number of cells migrating toward medium alone (control). Each experiment was performed at least three times, in duplicate.
Now referring to FIG. 6. To assess whether GPRC6A mediates prostate cancer cells chemotaxis and metastases, the ability of calcium and OC to evoke chemotaxis of human prostate cancer cell 22Rv1 expressing GPRC6A was examined. The ligands of GPRC6A, OC, arginine and R1881 stimulated gene expression of PSA (FIG. A) and Runx2 (FIG. B) were attenuated by GPRC6A siRNA in 22Rv1, human prostate cancer cells. […] The experiments were described in Materials and methods. In all of the above studies, values for relative cell proliferation (expressed as percent of control) represent the mean±SEM of a minimum of three separate experiments.

[9] = tested on: 22Rv1 or PC-3; test: Cell proliferation by hemocytometer cell count; format: cell-based, human; details: 22Rv1 or PC-3, 72 h culture, versus control without added ligand; FIG. 3
Procedure: The prostate cancer cell lines 22Rv1, PC-3 and LNcaP and the prostate cell lined RWPE-1 derived from normal prostate were obtained from the American Type Culture Collection (Manassas, Va.). The prostate cells were maintained in RPMI 1640 supplemented with 10% fetal bovine serum (Gibco Life Technologies, Inc.). Cells (10^3 cells/well) were cultured in triplicate in a 96-well flat-bottomed microculture dish using RPMI 1640 containing 10% CFBS in the presence and absence of various concentrations of GPRC6A ligands, including: calcium, amino acids, calcimimetic and OC for 72 h. Cell proliferation was determined by counting cells with a hemocytometer (21).
Now referring to FIG. 3. To determine if GPRC6A ligands enhance prostate cell growth, changes were accessed in cell numbers in 22Rv1 and PC-3 cells exposed to different concentrations of extracellular calcium or OC over a three-day culture period. […] Cell proliferation was determined by counting cells in a hemocytometer method as described in Materials and methods. In all of the above studies, values for relative cell proliferation (expressed as percent of control) represent the mean±SEM of a minimum of three separate experiments. * indicates a significant difference from control and stimulation at p<0.05, respectively.

[10] = tested on: GPRC6A; test: siRNA suppression of GPRC6A gene expression (RT-PCR); format: cell-based, human; details: compared to controls, FIG. 5A
Excerpt: For GPRC6A knockdown experiments, two short interfering RNAs (siRNAs) (19 nucleotides each) have been designed from the hGPRC6A sequence (NM_148963) (SEQ ID NO: 9). These are GPRC6A siRNA-202: CCAGGAGTGTGTTGGCTTT (SEQ ID NO: 10) and siRNA-514: GCCACAGGTGGGTTATGAA (SEQ ID NO: 11). Two siRNA hairpins were synthesized and cloned into a pSilencer™ 4.1-CMV neo vector (Ambion). A circular pSilencer™ 4.1-CMV neo vector that expresses a hairpin siRNA with limited homology to any known sequence was used as a negative control. The constructs of siRNA duplexes have been stably transfected into human prostate cancer cells using Lipofectamine™ (Invitrogen) and were selected by G418 (Invitrogen). Successful knock down of GPRC6A will be confirmed by assessing RT-PCR analysis of GPRC6A expression.
as §5

[11] = target: Human GPRC6A, endogenous in human prostate cancer cell lines 22Rv1 and PC-3 (human) (UniProt Q5T6X5); test: cell-based or functional assay
Sequence of UniProt Q5T6X5 (Q5T6X5 19-926): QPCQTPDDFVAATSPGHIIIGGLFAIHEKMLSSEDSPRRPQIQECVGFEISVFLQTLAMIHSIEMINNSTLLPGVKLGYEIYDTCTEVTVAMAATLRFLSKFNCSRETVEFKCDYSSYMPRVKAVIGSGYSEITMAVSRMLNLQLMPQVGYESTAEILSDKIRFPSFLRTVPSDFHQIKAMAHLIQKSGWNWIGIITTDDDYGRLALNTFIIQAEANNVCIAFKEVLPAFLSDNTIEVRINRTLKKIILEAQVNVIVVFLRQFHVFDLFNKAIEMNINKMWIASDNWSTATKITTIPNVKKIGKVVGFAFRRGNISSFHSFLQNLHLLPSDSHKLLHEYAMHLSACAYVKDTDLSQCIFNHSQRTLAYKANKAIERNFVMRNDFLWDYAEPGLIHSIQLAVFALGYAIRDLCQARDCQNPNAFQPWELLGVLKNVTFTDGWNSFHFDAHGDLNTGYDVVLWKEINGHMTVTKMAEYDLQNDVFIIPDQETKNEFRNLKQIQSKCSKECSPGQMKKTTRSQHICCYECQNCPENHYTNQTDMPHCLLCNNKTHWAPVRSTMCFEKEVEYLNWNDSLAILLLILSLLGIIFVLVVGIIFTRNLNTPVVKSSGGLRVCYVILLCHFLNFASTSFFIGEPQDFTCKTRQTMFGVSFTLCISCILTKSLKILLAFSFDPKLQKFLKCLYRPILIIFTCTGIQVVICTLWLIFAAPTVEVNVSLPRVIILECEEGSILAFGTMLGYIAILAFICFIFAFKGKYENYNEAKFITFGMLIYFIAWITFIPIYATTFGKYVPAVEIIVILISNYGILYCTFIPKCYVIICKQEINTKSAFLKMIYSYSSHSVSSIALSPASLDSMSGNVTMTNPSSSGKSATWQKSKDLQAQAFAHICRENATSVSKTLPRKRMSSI

[12] = 22Rv1 stably transfected with siRNA
[13] = PC-3 stably transfected with siRNA

| Compound | PSA gene expression [2] | Runx 2II gene expression [2] | PSA gene expression [3] | Runx 2II gene expression [3] | phospho-ERK [4] | phospho-ERK [5] | ERK response [6] | stimulation of ERK activity [7] | other results |
| --- | --- | --- | --- | --- | --- | --- | --- | --- | --- |
| COc1cccc(-c2cc(=O)c3ccccc3o2)c1N [PD98059] |  |  |  |  |  |  |  |  | growth-factor-mediated cell proliferation [1]: obliterates |
| C[C@]1(O)CC[C@H]2[C@@H]3CCC4=CC(=O)CCC4=C3C=C[C@@]21C [R1881, Methytrienolone] | stimulated | stimulated | stimulated | stimulated |  |  |  |  |  |
| N=C(N)NCCC[C@H](N)C(=O)O [arginine, L-Arginine] | stimulated | stimulated | stimulated | stimulated | increased | increased | failed to respond | dose-dependent stimulation |  |
| [Ca+2].[Cl-].[Cl-] [calcium, calcium chloride] |  |  |  |  | increased | increased | failed to respond | dose-dependent stimulation | chemotaxis of 22Rv1 prostate cancer cells [8]: induced the chemotaxis; increase in cell number [9]: ~30% |
| [Cl-].[Cl-].[Zn+2] [zinc, zinc chloride] |  |  |  |  | increased | increased | failed to respond | dose-dependent stimulation |  |
| GPRC6A siRNA-202: siRNA, 19 nucleotides, CCAGGAGTGTGTTGGCTTT (SEQ ID NO: 10), hairpin cloned into pSilencer 4.1-CMV neo vector |  |  |  |  |  |  |  |  | OC and testosterone stimulated phospho-ERK activity ([4]; 22Rv1 transfected with siRNA): significantly decreased; ERK phosphorylation by extracellular calcium, testosterone, arginine and OC ([4]; 22Rv1 transfected with siRNA, FIG. 5C): failed to stimulate; mRNA expression of GPRC6A [10, 12]: Decreased; mRNA expression of GPRC6A [10, 13]: Decreased; OC and testosterone stimulated phospho-ERK activity [5]: significantly decreased |
| OC: Osteocalcin (purified from bovine bone), vitamin-K dependent hormone, GPRC6A ligand (YLDHWLGAPAPYPDPLEPKREVCELNPDCDELADHIGFQEAYRRFYGPV; ends and bridges not checked; cysteine pairing not given here; UniProt P02820 52-100, looked up) | stimulated | stimulated | stimulated | stimulated | increased | increased | failed to respond | dose-dependent stimulation | chemotaxis of 22Rv1 prostate cancer cells [8]: induced the chemotaxis; increase in cell number [9]: ~70% |
| Osteocalcin (purified from bovine bone) (from UniProt P02820 52-100) (ligand) |  |  |  |  |  |  |  |  | cell number after 72 h culture of 22Rv1 and PC-3 cells with OC [11]: 70% |
| siRNA-514: siRNA, 19 nucleotides, GCCACAGGTGGGTTATGAA (SEQ ID NO: 11), hairpin cloned into pSilencer 4.1-CMV neo vector |  |  |  |  |  |  |  |  | ligand-induced mRNA expression of PSA ([2]; 22Rv1 stably transfected with siRNA versus negative control siRNA, FIG. 6A): Significantly decreased; ligand-induced mRNA expression of Runx2 ([2]; 22Rv1 stably transfected with siRNA versus negative control siRNA, FIG. 6B): Significantly decreased; OC and testosterone stimulated phospho-ERK activity ([4]; 22Rv1 transfected with siRNA): significantly decreased; mRNA expression of GPRC6A [10, 12]: Decreased; mRNA expression of GPRC6A [10, 13]: Decreased; OC and testosterone stimulated phospho-ERK activity [5]: significantly decreased |
